Measured values taken from US10435388B2, “Selective inhibitors of clinically important mutants of the EGFR tyrosine kinase” (CS PHARMATECH LIMITED, priority 2016, dated 2019).
Counter-ions that a name gives are not always drawn.

Experiments:
Conditions in all cases: cellular proliferation, several runs
[1] = test system: H1975 cells (DM); assay: H1975 inhibition assay (cell proliferation), Method B; assay type: cell-based
Method: (§1) Cell Proliferation Assays—Method B
H1975 Inhibition Assay (Cell Proliferation).
(§2) Test compounds were dissolved in DMSO at 30 mM.
(§3) The final concentration was 1,000 cells/well. Add medium only as low control. […] 5% CO2 incubator for 72 hours.
(§4) After 72 hours incubation, remove the plates from incubator and equilibrate at room temperature for 15 minutes. Incubate the CellTiter Glo reagents (Promega, G9243) at 37° C. before the experiment. The buffer was equilibrated to room temperature and used to dissolve the substrate. To determine the cell viability, add 40 μL of CellTiter-Glo reagent into each well to be detected (at 1:1 to culture medium). Then the place the plates at room temperature for 30 min followed by read on EnSpire (PerkinElmer).
(§5) For estimation of IC50, the luminescence readout are transformed to % Inhibition by applying the following equation: The IC50 was then
(§6) [formula] calculated by fitting in XLFit to a four parameters logistic curve.

[2] = test system: PC9 cells (SM); assay: PC-9 growth inhibition assay (cell proliferation), Method B; assay type: cell-based, human
Method: as §1, §2, §3, §4, §5, §6
PC-9 Growth Inhibition Assay (Cell Proliferation).
The inhibition assay of PC-9 cells was conducted in the same manner as described above for H1975 cells.

[3] = test system: A431 cells (WT); assay: A431 inhibition assay (cell proliferation), Method B; assay type: cell-based, human
Method: as §1
A431 Inhibition Assay, (Cell Proliferation).
The rest procedure was conducted in the same manner as described above for H1975 cells.

Row | IC50 ([1]; Homo sapiens, NCI-H1975, 72 h) [nM] | IC50 ([2]; Homo sapiens, PC-9, 72 h) [nM] | IC50 ([3]; Homo sapiens, A-431, 72 h) [nM] | IC50 ([1]; 72 h) [nM] | IC50 ([2]; 72 h) [nM] | IC50 ([3]; 72 h) [nM] | Structure (SMILES)
1 | 82 | 82.7 | 1320 | – | – | – | C=CC(=O)Nc1cc(Nc2ncc(Cl)c(-c3c[nH]c(=O)c(C)c3)n2)c(OC)cc1N(C)CCN(C)C [Example 38, N-(5-((5-Chloro-4-(3-methyl-2-oxo-1,6-dihydropyridin-5-yl)pyrimidin-2-yl)amino)-2-((2-(dimethylamino)ethyl)(methyl)amino)-4-methoxyphenyl) acrylamide]
2 | 12.6 | 3.28 | 426 | – | – | – | C=CC(=O)Nc1cc(Nc2ncc(Cl)c(-n3cc(C(C)=O)c4ccccc43)n2)c(OC)cc1N(C)CCN(C)C [Example 73, N-(5-(4-(3-Acetyl-1H-indol-1-yl)-5-chloropyrimidin-2-ylamino)-2-((2-(dimethylamino)ethyl)(methyl)amino)-4-methoxyphenyl) acrylamide]
3 | 103 | 67 | 6990 | – | – | – | C=CC(=O)Nc1cc(Nc2ncc(Cl)c(-c3cncc(C(N)=O)c3)n2)c(OC)cc1N(C)CCN(C)C [Example 24, 5-(2-((5-Acrylamido-4-((2-(dimethylamino)ethyl)(methyl)amino)-2-methoxyphenyl)amino)-5-chloropyrimidin-4-yl)nicotinamide hydrochloride]
4 | 5.24 | 23.7 | 777 | – | – | – | C=CC(=O)Nc1cc(Nc2nccc(-n3nc(C(N)=O)c4c3CCC4)n2)c(OC)cc1N(C)CCN(C)C [Example 29, 1-(2-((5-Acrylamido-4-((2-(dimethylamino)ethyl)(methyl)amino)-2-methoxyphenyl)amino)pyrimidin-4-yl) cyclopenta[c]pyrazole-3-carboxamide]
5 | 137 | 62.6 | 1690 | 92.7 | 52.4 | 1190 | C=CC(=O)Nc1cc(Nc2nccc(-c3c[nH]c4c(=O)[nH]ccc34)n2)c(OC)cc1N(C)CCN(C)C [Example 22, N-(2-((2-(Dimethylamino)ethyl)(methyl)amino)-4-methoxy-5-((4-(7-oxo-6,7-dihydro-1H-pyrrolo[2,3-c]pyridin-3-yl)pyrimidin-2-yl)amino)phenyl) acrylamide]
6 | 25 | 37.3 | 1030 | – | – | – | C=CC(=O)Nc1cc(Nc2ncc(Cl)c(-c3ccc(N(C)C)nc3)n2)c(OC)cc1N(C)CCN(C)C [Example 26, N-(5-((5-Chloro-4-(6-(dimethylamino)pyridin-3-yl)pyrimidin-2-yl)amino)-2-((2-(dimethylamino)ethyl)(methyl)amino)-4-methoxyphenyl) acrylamide]
7 | 3.55 | 1.92 | 71.2 | – | – | – | C=CC(=O)Nc1cc(Nc2nccc(-n3nc(NC4CC4)c4ccccc43)n2)c(OC)cc1N(C)CCN(C)C [Example 69, N-(5-(4-(3-(cyclopropylamino)-1H-indazol-1-yl)pyrimidin-2-ylamino)-2-((2-(dimethylamino)ethyl)(methyl)amino)-4-methoxyphenyl) acrylamide]
8 | 2.27 | 3.33 | 152 | – | – | – | C=CC(=O)Nc1cc(Nc2nccc(-n3cc(-c4ccn[nH]4)c4ncccc43)n2)c(OC)cc1N(C)CCN(C)C [Example 76, N-(5-((4-(3-(1H-Pyrazol-5-yl)-1H-pyrrolo[3,2-b]pyridin-1-yl)pyrimidin-2-yl)amino)-2-((2-(dimethylamino)ethyl)(methyl)amino)-4-methoxyphenyl) acrylamide]
9 | 4.21 | 6.46 | 121 | – | – | – | C=CC(=O)Nc1cc(Nc2nccc(-n3nc(NC4CCOC4)c4ccccc43)n2)c(OC)cc1N(C)CCN(C)C (stereo not shown) [Example 65, N-(5-(4-(3-(Tetrahydrofuran-3-ylamino)-1H-indazol-1-yl)pyrimidin-2-ylamino)-2-(N-(2-(dimethylamino)ethyl)-N-methylamino)-4-methoxyphenyl) acrylamide]
10 | 21.9 | 22 | 588 | – | – | – | C=CC(=O)Nc1cc(Nc2nccc(-c3cc(C)c[nH]c3=O)n2)c(OC)cc1N(C)CCN(C)C [Example 37, N-(2-((2-(Dimethylamino)ethyl)(methyl)amino)-4-methoxy-5-((4-(5-methyl-2-oxo-1,2-dihydropyridin-3-yl)pyrimidin-2-yl)amino)phenyl) acrylamide]
11 | 174 | 475 | 9070 | – | – | – | C=CC(=O)Nc1cc(Nc2nccc(-n3nc(NS(C)(=O)=O)c4ccccc43)n2)c(OC)cc1N(C)CCN(C)C [Example 44, N-(5-(4-(3-(N-methanesulfonylamido)-1H-indazol-1-yl)pyrimidin-2-ylamino)-2-(N-(2-(dimethylamino)ethyl)-N-methylamino)-4-methoxyphenyl) acrylamide]
12 | 4.06 | 17.2 | 325 | – | – | – | C=CC(=O)Nc1cc(Nc2ncc(Cl)c(-n3nc(NC)c4ccccc43)n2)c(OC)cc1N(C)CCN(C)C [Example 52, N-(5-(5-Chloro-4-(3-(methylamino)-1H-indazol-1-yl)pyrimidin-2-ylamino)-2-(N-(2-(dimethylamino)ethyl)-N-methylamino)-4-methoxyphenyl) acrylamide]
13 | 6.23 | 3.09 | 82.5 | – | – | – | C=CC(=O)Nc1cc(Nc2nccc(-n3nc(NC(C)=O)c4ccccc43)n2)c(OC)cc1N(C)CCN(C)C [Example 53, N-(5-(4-(3-Acetamido-1H-indazol-1-yl)pyrimidin-2-ylamino)-2-((2-(dimethylamino)ethyl)(methyl)amino)-4-methoxyphenyl) acrylamide]
14 | – | 22 | 2230 | – | 26 | 1710 | C=CC(=O)Nc1cc(Nc2nccc(-c3cnc(NC)c(C(N)=O)c3)n2)c(OC)cc1N(C)CCN(C)C [Example 28, 5-(2-((5-Acrylamido-4-((2-(dimethylamino)ethyl)(methyl)amino)-2-methoxyphenyl)amino)pyrimidin-4-yl)-2-(methylamino)nicotinamide]
15 | 8.55 | 5.88 | 912 | – | – | – | C=CC(=O)Nc1cc(Nc2nccc(-n3nc(N(C)C)c4ccccc43)n2)c(OC)nc1N(C)CCN(C)C [Example 72, N-(5-((4-(3-(Dimethylamino)-1H-indazol-1-yl)pyrimidin-2-yl)amino)-2-((2-(dimethylamino)ethyl)(methyl)amino)-6-methoxypyridin-3-yl) acrylamide]
16 | 19.8 | 63.1 | 2100 | – | – | – | C=CC(=O)Nc1cc(Nc2ncc(Cl)c(-c3ccc(NC)nc3)n2)c(OC)cc1N(C)CCN(C)C [Example 25, N-(5-((5-Chloro-4-(6-(methylamino)pyridin-3-yl)pyrimidin-2-yl)amino)-2-((2-(dimethylamino)ethyl)(methyl)amino)-4-methoxyphenyl) acrylamide]
17 | 89.5 | 27.9 | 439 | – | – | – | C=CC(=O)Nc1cc(Nc2nccc(-n3cc(-c4cn[nH]c4)c4ccccc43)n2)c(OC)cc1N(C)CCN(C)C [Example 75, N-(5-((4-(3-(1H-Pyrazol-4-yl)-1H-indol-1-yl)pyrimidin-2-yl)amino)-2-((2-(dimethylamino)ethyl)(methyl)amino)-4-methoxyphenyl) acrylamide]
18 | 3.01 | 1.51 | 239 | – | – | – | C=CC(=O)Nc1cc(Nc2nccc(-n3cc(C(=O)NC)c4ncccc43)n2)c(OC)cc1N(C)CCN(C)C [Example 51, N-Methyl 1-(2-(5-acrylamido-4-((2-(dimethylamino)ethyl)(methyl)amino)-2-methoxyphenylamino)pyrimidin-4-yl)-1H-pyrrolo[3,2-b]pyridine-3-carboxamide]
19 | 0.86 | 2.37 | 264 | – | – | – | C=CC(=O)Nc1cc(Nc2nccc(-c3cc(C(N)=O)c4[nH]cc(C)c4c3)n2)c(OC)cc1N(C)CCN(C)C [Example 68, 5-(2-(5-Acrylamido-4-((2-(dimethylamino)ethyl)(methyl)amino)-2-methoxyphenylamino)pyrimidin-4-yl)-3-methyl-1H-indole-7-carboxamide]
20 | 3.03 | 5.79 | 528 | – | – | – | C=CC(=O)Nc1cc(Nc2ncc(Cl)c(-c3cnc(NC)c(C(C)=O)c3)n2)c(OC)cc1N(C)CCN(C)C [Example 63]
21 | 7.62 | 14.4 | 118 | – | – | – | C=CC(=O)Nc1cc(Nc2nccc(-c3c[nH]c4c(N(C)C)nccc34)n2)c(OC)cc1N(C)CCN(C)C [Example 50, N-(5-(4-(7-(Dimethylamino)-1H-pyrrolo[2,3-c]pyridin-3-yl)pyrimidin-2-ylamino)-2-(N-(2-(dimethylamino)ethyl)-N-methylamino)-4-methoxyphenyl) acrylamide]
22 | 94 | 29.5 | 1070 | – | – | – | C=CC(=O)Nc1cc(Nc2nccc(-n3cc(-c4c[nH]nn4)c4ccccc43)n2)c(OC)cc1N(C)CCN(C)C [Example 61, N-(5-(4-(3-(1H-1,2,3-Triazol-4-yl)-1H-indol-1-yl)pyrimidin-2-ylamino)-2-(N-(2-(dimethylamino)ethyl)-N-methylamino)-4-methoxyphenyl) acrylamide]
